The values that follow come from patent US20240261367A1, “CYCLIC PEPTIDE IMMUNOMODULATORS” (priority 2021, published 2024).

Molecules are shown by their SMILES. Starred links: 1 amine or outer side, 2 acyl side, 3 side chain; linkers in the order of their positions; H or OH if unused. Positions of bridges follow the written chain, without caps; N, C: chain ends. Non-standard residues stand in square brackets, D forms with d. Residues, ends and D or L forms follow the SMILES beside them. *: point of attachment. X2 = COC(=O)CCCCCCCCCCCCCCCCC(=O)N[C@@H](CCC(=O)NCCOCCOCCOCCOCCOCCOCCOCCOCCOCCOCCOCCn1cc(C[C@H](NC(=N)CNC(=O)[C@H](CSCC(=O)[*:1])NC(=N)[C@H](CC(C)C)N[*:2])C(=O)OC)nn1)C(=O)OC; X1 = COC(=O)CCCCCCCCCCCCCCCCC(=O)N[C@@H](CCC(=O)NCCOCCOCCOCCOCCOCCOCCOCCOCCOCCOCCOCCn1cc(C[C@H](NC(=N)CN*)C(=O)O)nn1)C(=O)O; Ala(1-CH2COOH-inden-3-yl) = N[C@@H](CC1=CC(CC(=O)O)c2ccccc21)C(=O)O; Trp(1-CH2COOH) = N[C@@H](Cc1cn(CC(=O)O)c2ccccc12)C(=O)O; Hyp = O=C(O)[C@@H]1C[C@@H](O)CN1; NMeNle = CCCC[C@H](NC)C(=O)O; NMeA = CN[C@@H](C)C(=O)O; Dab = NCC[C@H](N)C(=O)O; Dap = NC[C@H](N)C(=O)O

For this assay, the target named is T1, PD-1/PD-L1 (Homo sapiens, UniProt Q9NZQ7).
T1 construct: TVMV protease site linker (C); made in house; host or cells: HEK293T cells
T1 sequence (Q9NZQ7 18-239): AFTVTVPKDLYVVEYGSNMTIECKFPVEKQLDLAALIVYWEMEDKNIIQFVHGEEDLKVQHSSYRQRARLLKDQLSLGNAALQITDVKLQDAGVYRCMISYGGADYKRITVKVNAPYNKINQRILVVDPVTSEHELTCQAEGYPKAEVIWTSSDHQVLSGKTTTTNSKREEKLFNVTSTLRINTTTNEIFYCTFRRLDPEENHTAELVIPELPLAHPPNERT
As to the kind of experiment: PD-1/PD-L1 Homogenous Time-Resolved Fluorescence (HTRF) binding assay. Conditions: PD-L1-His (10 nM) pre-incubated with inhibitor 15 m, then PD-1-Ig (20 nM). The text has this: Methods for Testing the Ability of Macrocyclic Peptides to Compete for the Binding of PD-1 to PD-L1 Using Homogenous Time-Resolved Fluorescence (HTRF) Binding Assays
The ability of the compounds of formula (I) to bind to PD-L1 was investigated using a PD-1/PD-L1 Homogenous Time-Resolved Fluorescence (HTRF) binding assay.
Homogenous Time-Resolved Fluorescence (HTRF) Binding Assay
The interaction of PD-1 and PD-L1 can be assessed using soluble, purified preparations of the extracellular domains of the two proteins. The PD-1 and PD-L1 protein extracellular domains were expressed as fusion proteins with detection tags, for PD-1, the tag was the Fc portion of Immunoglobulin (PD-1-Ig) and for PD-L1 it was the 6 histidine motif (PD-L1-His). All binding studies were performed in an HTRF assay buffer consisting of dPBS supplemented with 0.1% […] bovine serum albumin and 0.05% (v/v) Tween-20. […] HTRF detection was achieved using europium crypate-labeled anti-Ig (1 nM final) and allophycocyanin (APC) labeled anti-His (20 nM final). Antibodies were diluted in HTRF detection buffer and 5 μl was dispensed on top of the binding reaction. The reaction mixture was allowed to equilibrate for 30 minutes and the resulting signal (665 nm/620 nm ratio) was obtained using an EnVision fluorometer. Additional binding assays were established between the human proteins PD-1-Ig/PD-L2-His (20 & 5 nM, respectively) and CD80-His/PD-L1-Ig (100 & 10 nM, respectively).
Recombinant Proteins: Human PD-1 (25-167) with a C-terminal human Fc domain of immunoglobulin G (Ig) epitope tag [hPD-1 (25-167)-3S-IG] and human PD-L1 (18-239) with a C-terminal His epitope tag [hPD-L1(18-239)-TVMV-His] were expressed in HEK293T cells and purified sequentially by ProteinA affinity chromatography and size exclusion chromatography. Human PD-L2-His and CD80-His was obtained through commercial sources.
Table 1 lists the IC50 values for representative examples of this disclosure measured in the PD-1/PD-L1 Homogenous Time-Resolved Fluorescence (HTRF) binding assay.
Consider `CCCC[C@H]1C(=O)N(C)[C@@H](CCCC)C(=O)N[C@@H](CC(C)C)C(=O)N[C@H](C(=O)NCC(=O)N[C@@H](Cc2cn(CCOCCOCCOCCOCCOCCOCCOCCOCCOCCOCCOCCNC(=O)CC[C@H](NC(=O)CCCCCCCCCCCCCCCCC(=O)O)C(=O)OC)nn2)C(=O)OC)CSCC(=O)N[C@@H](Cc2ccc(O)cc2)C(=O)N(C)[C@@H](C)C(=O)N[C@@H](CC(N)=O)C(=O)N2CCC[C@H]2C(=O)N[C@@H](CN)C(=O)N[C@@H](CC(C)C)C(=O)N2C[C@H](O)C[C@H]2C(=O)N[C@@H](Cc2c[nH]c3ccccc23)C(=O)N[C@@H](CCN)C(=O)N[C@@H](Cc2cn(CC(=O)OC)c3ccccc23)C(=O)N1C` [Example 3004], for which the IC50 came to 0.021 µM. In other words, the double-digit nanomolar range.

In turn, `CCCC[C@H]1C(=O)N(C)[C@@H](CCCC)C(=O)N[C@@H](CC(C)C)C(=O)N[C@H](C(=O)NCC(=O)N[C@@H](Cc2cn(CCOCCOCCOCCOCCOCCOCCOCCOCCOCCOCCOCCNC(=O)CC[C@H](NC(=O)CCCCCCCCCCCCCCCCC(=O)O)C(=O)O)nn2)C(=O)O)CSCC(=O)N[C@@H](Cc2ccc(O)cc2)C(=O)N(C)[C@@H](C)C(=O)N[C@@H](CC(N)=O)C(=O)N2CCC[C@H]2C(=O)N[C@@H](CNC(=O)OC)C(=O)N[C@@H](CC(C)C)C(=O)N2C[C@H](O)C[C@H]2C(=O)N[C@@H](Cc2c[nH]c3ccccc23)C(=O)N[C@@H](CCNC(=O)OCC)C(=O)N[C@@H](Cc2cn(CC(=O)O)c3ccccc23)C(=O)N1C` [Example 7012] showed an IC50 of 0.008 µM. The same measure for `CCCC[C@H]1C(=O)N(C)[C@@H](CCCC)C(=O)N[C@@H](CC(C)C)C(=O)N[C@H](C(=O)NCC(=O)N[C@@H](Cc2cn(CCOCCOCCOCCOCCOCCOCCOCCOCCOCCOCCOCCNC(=O)CC[C@H](NC(=O)CCCCCCCCCCCCCCCCC(=O)OC)C(=O)OC)nn2)C(=O)OC)CSCC(=O)N[C@@H](Cc2ccc(O)cc2)C(=O)N(C)[C@@H](C)C(=O)N[C@@H](CC(N)=O)C(=O)N2CCC[C@H]2C(=O)N[C@@H](CNC(=O)OC(C)(C)C)C(=O)N[C@@H](CC(C)C)C(=O)N2C[C@H](O)C[C@H]2C(=O)N[C@@H](Cc2c[nH]c3ccccc23)C(=O)N[C@@H](CCNC(=O)OC(C)(C)C)C(=O)N[C@@H](Cc2cn(CC(=O)OC)c3ccccc23)C(=O)N1C` [Example 2001]: 0.17 µM; for `CCCC[C@H]1C(=O)N(C)[C@@H](CCCC)C(=O)N[C@@H](CC(C)C)C(=O)N[C@H](C(=O)NCC(=O)N[C@@H](Cc2cn(CCOCCOCCOCCOCCOCCOCCOCCOCCOCCOCCOCCNC(=O)CC[C@H](NC(=O)CCCCCCCCCCCCCCCCC(=O)O)C(=O)O)nn2)C(=O)O)CSCC(=O)N[C@@H](Cc2ccc(O)cc2)C(=O)N(C)[C@@H](C)C(=O)N[C@@H](CC(N)=O)C(=O)N2CCC[C@H]2C(=O)N[C@@H](CNC(=O)OCc2oc(=O)oc2C)C(=O)N[C@@H](CC(C)C)C(=O)N2C[C@H](O)C[C@H]2C(=O)N[C@@H](Cc2c[nH]c3ccccc23)C(=O)N[C@@H](CCNC(=O)OC)C(=O)N[C@@H](Cc2cn(CC(=O)O)c3ccccc23)C(=O)N1C` [Example 7006]: 0.043 µM. The same measure for `CCCC[C@H]1C(=O)N(C)[C@@H](CCCC)C(=O)N[C@@H](CC(C)C)C(=O)N[C@H](C(=O)NCC(=O)N[C@@H](Cc2cn(CCOCCOCCOCCOCCOCCOCCOCCOCCOCCOCCOCCNC(=O)CC[C@H](NC(=O)CCCCCCCCCCCCCCCCC(=O)O)C(=O)O)nn2)C(=O)O)CSCC(=O)N[C@@H](Cc2ccc(O)cc2)C(=O)N(C)[C@@H](C)C(=O)N[C@@H](CC(N)=O)C(=O)N2CCC[C@H]2C(=O)N[C@@H](CNC(=O)OCCC)C(=O)N[C@@H](CC(C)C)C(=O)N2C[C@H](O)C[C@H]2C(=O)N[C@@H](Cc2c[nH]c3ccccc23)C(=O)N[C@@H](CCN)C(=O)N[C@@H](CC2=CC(CC(=O)O)c3ccccc32)C(=O)N1C` (stereo partly shown) [Example 1013]: 0.0093 µM. The same measure for `CCCC[C@H]1C(=O)N(C)[C@@H](CCCC)C(=O)N[C@@H](CC(C)C)C(=O)N[C@H](C(=O)NCC(=O)N[C@@H](Cc2cn(CCOCCOCCOCCOCCOCCOCCOCCOCCOCCOCCOCCNC(=O)CC[C@H](NC(=O)CCCCCCCCCCCCCCCCC(=O)O)C(=O)O)nn2)C(=O)O)CSCC(=O)N[C@@H](Cc2ccc(O)cc2)C(=O)N(C)[C@@H](C)C(=O)N[C@@H](CC(N)=O)C(=O)N2CCC[C@H]2C(=O)N[C@@H](CNCC(O)C(O)C(O)C(O)C(O)CO)C(=O)N[C@@H](CC(C)C)C(=O)N2C[C@H](O)C[C@H]2C(=O)N[C@@H](Cc2c[nH]c3ccccc23)C(=O)N[C@@H](CCN)C(=O)N[C@@H](Cc2cn(CC(=O)O)c3ccccc23)C(=O)N1C` (stereo partly shown) [Example 8001]: 0.012 µM; for `CCCC[C@H]1C(=O)N(C)[C@@H](CCCC)C(=O)N[C@@H](CC(C)C)C(=O)N[C@H](C(=O)NCC(=O)N[C@@H](Cc2cn(CCOCCOCCOCCOCCOCCOCCOCCOCCOCCOCCOCCNC(=O)CC[C@H](NC(=O)CCCCCCCCCCCCCCCCC(=O)OCc3oc(=O)oc3C)C(=O)O)nn2)C(=O)O)CSCC(=O)N[C@@H](Cc2ccc(O)cc2)C(=O)N(C)[C@@H](C)C(=O)N[C@@H](CC(N)=O)C(=O)N2CCC[C@H]2C(=O)N[C@@H](CNC(=O)OCC)C(=O)N[C@@H](CC(C)C)C(=O)N2C[C@H](O)C[C@H]2C(=O)N[C@@H](Cc2c[nH]c3ccccc23)C(=O)N[C@@H](CCN)C(=O)N[C@@H](Cc2cn(CC(=O)O)c3ccccc23)C(=O)N1C` [Example 7016]: 0.034 µM.

`CCCC[C@H]1C(=O)N(C)[C@@H](CCCC)C(=O)N[C@@H](CC(C)C)C(=O)N[C@H](C(=O)NCC(=N)N[C@@H](Cc2cn(CCOCCOCCOCCOCCOCCOCCOCCOCCOCCOCCOCCNC(=O)CC[C@H](NC(=O)CCCCCCCCCCCCCCCCC(=O)OC)C(=O)O)nn2)C(=O)O)CSCC(=O)N[C@@H](Cc2ccc(O)cc2)C(=O)N(C)[C@@H](C)C(=O)N[C@@H](CC(N)=O)C(=O)N2CCC[C@H]2C(=O)N[C@@H](CN)C(=O)N[C@@H](CC(C)C)C(=O)N2C[C@H](O)C[C@H]2C(=O)N[C@@H](Cc2c[nH]c3ccccc23)C(=O)N[C@@H](CCN)C(=O)N[C@@H](Cc2cn(CC(=O)O)c3ccccc23)C(=O)N1C` [Example 1007] ({CH2CO}-Y[NMeA]NP[Dap]L[Hyp]W[Dab][Trp(1-CH2COOH)][NMeNle][NMeNle]LC-X1; thioether N-14) showed an IC50 of 0.021 µM. The same measure for `C#CCOC(=O)NC[C@@H]1NC(=O)[C@@H]2CCCN2C(=O)[C@H](CC(N)=O)NC(=O)[C@H](C)N(C)C(=O)[C@H](Cc2ccc(O)cc2)NC(=O)CSC[C@@H](C(=O)NCC(=O)N[C@@H](Cc2cn(CCOCCOCCOCCOCCOCCOCCOCCOCCOCCOCCOCCNC(=O)CC[C@H](NC(=O)CCCCCCCCCCCCCCCCC(=O)O)C(=O)O)nn2)C(=O)O)NC(=O)[C@H](CC(C)C)NC(=O)[C@H](CCCC)N(C)C(=O)[C@H](CCCC)N(C)C(=O)[C@H](CC2=CC(CC(=O)O)c3ccccc32)NC(=O)[C@H](CCN)NC(=O)[C@H](Cc2c[nH]c3ccccc23)NC(=O)[C@@H]2C[C@@H](O)CN2C(=O)[C@H](CC(C)C)NC1=O` (stereo partly shown) [Example 1010]: 0.01 µM; for `CCCC[C@H]1C(=O)N(C)[C@@H](CCCC)C(=O)N[C@@H](CC(C)C)C(=N)N[C@H](C(=O)NCC(=N)N[C@@H](Cc2cn(CCOCCOCCOCCOCCOCCOCCOCCOCCOCCOCCOCCNC(=O)CC[C@H](NC(=O)CCCCCCCCCCCCCCCCC(=O)OC)C(=O)OC)nn2)C(=O)OC)CSCC(=O)N[C@@H](Cc2ccc(O)cc2)C(=O)N(C)[C@@H](C)C(=O)N[C@@H](CC(N)=O)C(=O)N2CCC[C@H]2C(=O)N[C@@H](CN)C(=O)N[C@@H](CC(C)C)C(=O)N2C[C@H](O)C[C@H]2C(=O)N[C@@H](Cc2c[nH]c3ccccc23)C(=O)N[C@@H](CCN)C(=O)N[C@@H](CC2=CC(CC(=O)O)c3ccccc32)C(=O)N1C` (stereo partly shown) [Example 1012] (Y[NMeA]NP[Dap]L[Hyp]W[Dab][Ala(1-CH2COOH-inden-3-yl)][NMeNle][NMeNle]; linker N-C via X2): 0.011 µM.
